Assay results reported in US8691815B2, “Substituted oxindole derivatives, drugs containing said derivatives and the use thereof” (AbbVie Deutschland GmbH & Co. KG, priority 2005, dated 2014).
Structures can show the parent of a compound that is named as a salt.

The compounds below were run against T1, human vasopressin V1b receptor (Homo sapiens, UniProt P47901) (assay: Vasopressin V1b receptor binding assay). Details: membranes from CHO-K1 cells with stably expressed human V1b receptors, displacement of 1.5 nM 3H-AVP.
T1 construct: expressed in transfected cells; host or cells: CHO-K1 (cell line hV1b-3H2_CHO), membrane preparation
T1 sequence (P47901 1-424): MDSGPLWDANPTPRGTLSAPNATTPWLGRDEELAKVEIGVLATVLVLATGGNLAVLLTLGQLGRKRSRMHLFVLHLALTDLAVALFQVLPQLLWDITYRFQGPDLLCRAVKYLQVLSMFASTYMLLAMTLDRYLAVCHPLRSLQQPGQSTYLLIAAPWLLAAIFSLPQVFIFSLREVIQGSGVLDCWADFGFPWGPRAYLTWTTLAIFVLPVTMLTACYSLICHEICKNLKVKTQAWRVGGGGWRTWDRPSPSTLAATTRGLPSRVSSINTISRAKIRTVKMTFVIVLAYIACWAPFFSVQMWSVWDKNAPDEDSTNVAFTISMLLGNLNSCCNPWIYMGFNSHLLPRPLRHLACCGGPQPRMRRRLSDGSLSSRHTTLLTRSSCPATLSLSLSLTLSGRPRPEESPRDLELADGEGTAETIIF
Description: Vasopressin V1b Receptor Binding Assay:
The test substances were dissolved in a concentration of 10^−2 M in DMSO (dimethyl sulfoxide) and further diluted to 5×10^−4 M to 5×10^−9 M in DMSO. This series of DMSO predilutions was diluted 1:10 with assay buffer. The substance concentration was again diluted 1:5 in the assay mixture (2% DMSO in the mixture).
The membrane pellet was again homogenized and centrifuged as described and then taken up in 50 mM Tris-HCl, pH 7.4, homogenized and stored in aliquots frozen in liquid nitrogen at −190° C.
The incubation buffer was: 50 mM Tris, 10 mM MgCl2, 0.1% BSA, pH 7.4.
The nonspecific binding was determined with 1 uM AVP (Bachem # H1780). All determinations were carried out as triplicate determinations. After incubation (60 minutes at room temperature), the free radioligand was removed by vacuum filtration (Skatron cell harvester 7000) through Whatman GF/B glass fiber filter mats, and the filters were transferred into scintillation vials. The liquid scintillation measurement took place in a Tricarb model 2000 or 2200CA instrument (Packard). Conversion of the measured cpm into dpm was carried out with the aid of a standard quench series.
The binding parameters were calculated by nonlinear regression in SAS.

Row | Compound | Ki
1 | COc1ccc(S(=O)(=O)N2C(=O)C(c3ccc(CN4CCCCC4)cc3OC)(N3CCC[C@H]3C(=O)N(C)C)c3cc(Cl)ccc32)c(OC)c1 (single isomer, unassigned) [Example 8] | 1 to 10 nM
2 | COc1ccc(S(=O)(=O)N2C(=O)C(c3ccc(CN4CCOCC4)cc3OC)(N3CCC[C@H]3C(=O)N(C)C)c3cc(Cl)ccc32)c(OC)c1 (single isomer, unassigned) [Example 10] | 10 to 100 nM
3 | COc1ccc(S(=O)(=O)N2C(=O)C(c3cccc(CN(C)C)c3)(N3C[C@H](O)C[C@H]3C(=O)N(C)C)c3cc(Cl)ccc32)c(OC)c1 (single isomer, unassigned) [Example 16] | 1 to 10 nM
4 | COc1ccc(S(=O)(=O)N2C(=O)C(c3ccc(CN4CCCC4)cc3OC)(N3CCC[C@H]3C(=O)N(C)C)c3cc(Cl)ccc32)c(OC)c1 (stereo partly drawn) [Example 1, (S)-1-[5-Chloro-1-(2,4-dimethoxybenzenesulfonyl)-3-(2-methoxy-4-pyrrolidin-1-yl-methylphenyl)-2-oxo-2,3-dihydro-1H-indol-3-yl]-pyrrolidine-2-dimethylcarboxamide, trifluoroacetic acid salt] | < 1 nM
5 | COc1cc(CN2CCCC2)ccc1C1(N2CCC[C@H]2C(=O)N(C)C)C(=O)N(S(=O)(=O)c2ccc(F)cc2)c2ccc(Cl)cc21 (stereo partly drawn) [Example 3, (S)-1-[5-Chloro-1-(4-fluorobenzenesulfonyl)-3-(2-methoxy-4-pyrrolidin-1-ylmethyl-phenyl)-2-oxo-2,3-dihydro-1H-indol-3-yl]pyrrolidine-2-dimethylcarboxamide, trifluoroacetic acid salt] | 1 to 10 nM
6 | COc1cc(CN2CCCC2)ccc1C1(N2CCC[C@H]2C(=O)N(C)C)C(=O)N(S(=O)(=O)c2ccc(Cl)cc2)c2ccc(Cl)cc21 (stereo partly drawn) [Example 4, (S)-1-[5-Chloro-1-(4-chlorobenzenesulfonyl)-3-(2-methoxy-4-pyrrolidin-1-ylmethyl-phenyl)-2-oxo-2,3-dihydro-1H-indol-3-yl]pyrrolidine-2-dimethylcarboxamide, trifluoroacetic acid salt] | < 1 nM
7 | COc1cc(CN2CCCC2)ccc1C1(N2CCC[C@H]2C(=O)N(C)C)C(=O)N(S(=O)(=O)c2ccc(C#N)cc2)c2ccc(Cl)cc21 (stereo partly drawn) [Example 5, (S)-1-[5-Chloro-1-(4-cyanobenzenesulfonyl)-3-(2-methoxy-4-pyrrolidin-1-ylmethyl-phenyl)-2-oxo-2,3-dihydro-1H-indol-3-yl]pyrrolidine-2-dimethylcarboxamide, trifluoroacetic acid salt] | < 1 nM
8 | COc1ccc(S(=O)(=O)N2C(=O)C(c3ccc(CN4CCCC4)cc3)(N3C[C@H](O)C[C@H]3C(=O)N(C)C)c3cc(Cl)ccc32)c(OC)c1 (stereo partly drawn) [Example 6, (2S,4R)-1-[5-Chloro-1-(2,4-dimethoxybenzenesulfonyl)-2-oxo-3-(4-pyrrolidin-1-yl-methylphenyl)-2,3-dihydro-1H-indol-3-yl]-4-hydroxypyrrolidine-2-dimethylcarboxamide] | 10 to 100 nM
9 | COc1ccc(S(=O)(=O)N2C(=O)C(c3ccc(CN(C)C)cc3OC)(N3CCC[C@H]3C(=O)N(C)C)c3cc(Cl)ccc32)c(OC)c1 (stereo partly drawn) [Example 7, (S)-1-[5-Chloro-1-(2,4-dimethoxybenzenesulfonyl)-3-(4-dimethylaminomethyl-2-methoxyphenyl)-2-oxo-2,3-dihydro-1H-indol-3-yl]-pyrrolidin-2-dimethylcarboxamide] | 1 to 10 nM
10 | COc1ccc(S(=O)(=O)N2C(=O)C(c3ccc(CN4CCN(C)CC4)cc3OC)(N3CCC[C@H]3C(=O)N(C)C)c3cc(Cl)ccc32)c(OC)c1 (stereo partly drawn) [Example 9, (S)-1-{5-Chloro-1-(2,4-dimethoxybenzenesulfonyl)-3-[2-methoxy-4-(4-methyl-piperazin-1-ylmethyl)phenyl]-2-oxo-2,3-dihydro-1H-indol-3-yl}pyrrolidine-2-dimethylcarboxamide] | 1 to 10 nM
11 | COc1ccc(S(=O)(=O)N2C(=O)C(c3ccc(CN4CCN(C(C)=O)CC4)cc3OC)(N3CCC[C@H]3C(=O)N(C)C)c3cc(Cl)ccc32)c(OC)c1 (stereo partly drawn) [Example 11, (S)-1-[3-[4-(4-Acetylpiperazin-1-ylmethyl)-2-methoxyphenyl]-5-chloro-1-(2,4-dimethoxy-benzenesulfonyl)-2-oxo-2,3-dihydro-1H-indol-3-yl]pyrrolidine-2-dimethylcarboxamide] | 10 to 100 nM
12 | COc1ccc(S(=O)(=O)N2C(=O)C(c3ccc(CN(C)CCN(C)C)cc3OC)(N3CCC[C@H]3C(=O)N(C)C)c3cc(Cl)ccc32)c(OC)c1 (stereo partly drawn) [Example 12, (S)-1-[5-Chloro-1-(2,4-dimethoxybenzenesulfonyl)-3-(4-{[(2-dimethylaminoethyl)-methylamino]methyl}-2-methoxyphenyl)-2-oxo-2,3-dihydro-1H-indol-3-yl]pyrrolidine-2-dimethylcarboxamide] | 1 to 10 nM
13 | COc1ccc(S(=O)(=O)N2C(=O)C(c3ccc(CN4CCCC4)cc3OC)(N(C)[C@@H](C)C(=O)N(C)C)c3cc(Cl)ccc32)c(OC)c1 (stereo partly drawn) [Example 14, (S)-2-{[5-Chloro-1-(2,4-dimethoxybenzenesulfonyl)-3-(2-methoxy-4-pyrrolidin-1-yl-methylphenyl)-2-oxo-2,3-dihydro-1H-indol-3-yl]methylamino}-N,N-dimethyl-propionamide] | 1 to 10 nM
14 | COc1ccc(S(=O)(=O)N2C(=O)C(c3cc(CN(C)C)ccc3OC)(N3CCC[C@H]3C(=O)N(C)C)c3cc(Cl)ccc32)cc1 (stereo partly drawn) [Example 17, (S)-1-[5-Chloro-3-(5-dimethylaminomethyl-2-methoxyphenyl)-1-(4-methoxy-benzene-sulfonyl)-2-oxo-2,3-dihydro-1H-indol-3-yl]pyrrolidine-2-dimethylcarboxamide, trifluoroacetic acid salt] | < 1 nM
15 | COc1ccc(S(=O)(=O)N2C(=O)C(c3cc(CN4CCCC4)ccc3OC)(N3CCC[C@H]3C(=O)N(C)C)c3cc(Cl)ccc32)cc1 (stereo partly drawn) [Example 18, (S)-1-[5-Chloro-1-(4-methoxybenzenesulfonyl)-3-(2-methoxy-5-pyrrolidin-1-yl-methylphenyl)-2-oxo-2,3-dihydro-1H-indol-3-yl]pyrrolidine-2-dimethylcarboxamide, trifluoroacetic acid salt] | < 1 nM
16 | COc1ccc(S(=O)(=O)N2C(=O)C(c3cc(CN4CCCCC4)ccc3OC)(N3CCC[C@H]3C(=O)N(C)C)c3cc(Cl)ccc32)cc1 (stereo partly drawn) [Example 19, (S)-1-[5-Chloro-1-(4-methoxybenzenesulfonyl)-3-(2-methoxy-5-piperidin-1-ylmethyl-phenyl)-2-oxo-2,3-dihydro-1H-indol-3-yl]pyrrolidine-2-dimethylcarboxamide, trifluoroacetic acid salt] | < 1 nM
17 | COc1ccc(S(=O)(=O)N2C(=O)C(c3cc(CN4CCN(C)CC4)ccc3OC)(N3CCC[C@H]3C(=O)N(C)C)c3cc(Cl)ccc32)cc1 (stereo partly drawn) [Example 20, (S)-1-{5-Chloro-1-(4-methoxybenzenesulfonyl)-3-[2-methoxy-5-(4-methylpiperazin-1-yl-methyl)phenyl]-2-oxo-2,3-dihydro-1H-indol-3-yl}pyrrolidine-2-dimethylcarboxamide, trifluoroacetic acid salt] | < 1 nM
18 | COc1ccc(S(=O)(=O)N2C(=O)C(c3cc(CN4CCOCC4)ccc3OC)(N3CCC[C@H]3C(=O)N(C)C)c3cc(Cl)ccc32)cc1 (stereo partly drawn) [Example 21, (S)-1-[5-Chloro-1-(4-methoxybenzenesulfonyl)-3-(2-methoxy-5-morpholin-4-yl-methylphenyl)-2-oxo-2,3-dihydro-1H-indol-3-yl]pyrrolidine-2-dimethylcarboxamide, trifluoroacetic acid salt] | < 1 nM
19 | COc1ccc(S(=O)(=O)N2C(=O)C(c3cc(CN(C)CCN(C)C)ccc3OC)(N3CCC[C@H]3C(=O)N(C)C)c3cc(Cl)ccc32)cc1 (stereo partly drawn) [Example 22, (S)-1-[5-Chloro-3-(5-{[(2-dimethylaminoethyl)methylamino]methyl}-2-methoxy-phenyl)-1-(4-methoxybenzenesulfonyl)-2-oxo-2,3-dihydro-1H-indol-3-yl]pyrrolidine-2-dimethylcarboxamide, trifluoroacetic acid salt] | < 1 nM
20 | COc1ccc(S(=O)(=O)N2C(=O)C(c3cc(CN(C)CCCN(C)C)ccc3OC)(N3CCC[C@H]3C(=O)N(C)C)c3cc(Cl)ccc32)cc1 (stereo partly drawn) [Example 23, (S)-1-[5-Chloro-3-(5-{[(3-dimethylaminopropyl)methylamino]methyl}-2-methoxy-phenyl)-1-(4-methoxybenzenesulfonyl)-2-oxo-2,3-dihydro-1H-indol-3-yl]pyrrolidine-2-dimethylcarboxamide, trifluoroacetic acid salt] | < 1 nM
